Experimental data taken from PMC9297976 (Journal of Applied Toxicology, 2021).
pEC50, pIC50: −log10 of the molar value.

Experiments:
medaka Esr1 (mEsr1) [1] = biological target: T1, medaka Esr1 (mEsr1) (Oryzias latipes, UniProt P50241); test: Medaka Esr1 reporter gene assay, antagonist assay; assay type: cell-based, Japanese medaka (Oryzias latipes)
T1 sequence (P50241 1-620): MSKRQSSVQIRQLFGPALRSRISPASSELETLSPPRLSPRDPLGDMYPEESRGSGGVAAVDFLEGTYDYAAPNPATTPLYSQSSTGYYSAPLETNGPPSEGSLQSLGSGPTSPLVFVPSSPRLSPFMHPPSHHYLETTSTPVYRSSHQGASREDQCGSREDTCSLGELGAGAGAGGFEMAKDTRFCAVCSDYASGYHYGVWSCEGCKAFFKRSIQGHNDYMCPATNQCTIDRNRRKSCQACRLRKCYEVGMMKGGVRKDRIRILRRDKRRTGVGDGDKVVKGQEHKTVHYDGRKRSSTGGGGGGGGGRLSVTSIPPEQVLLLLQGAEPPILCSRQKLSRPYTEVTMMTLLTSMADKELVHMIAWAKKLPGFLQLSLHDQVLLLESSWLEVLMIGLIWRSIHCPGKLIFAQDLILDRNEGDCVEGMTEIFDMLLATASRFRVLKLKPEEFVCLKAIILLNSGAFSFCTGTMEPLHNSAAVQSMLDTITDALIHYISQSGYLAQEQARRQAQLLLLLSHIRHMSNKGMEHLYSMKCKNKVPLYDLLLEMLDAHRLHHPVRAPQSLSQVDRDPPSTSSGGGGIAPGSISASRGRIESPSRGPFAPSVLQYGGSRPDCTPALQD

medaka ARβ (mArβ) [2] = biological target: T2, medaka ARβ (mArβ) (Oryzias latipes, UniProt D1MV73); test: Medaka ARβ reporter gene assay, antagonist assay; assay type: cell-based, Japanese medaka (Oryzias latipes)
T2 sequence (D1MV73 1-744): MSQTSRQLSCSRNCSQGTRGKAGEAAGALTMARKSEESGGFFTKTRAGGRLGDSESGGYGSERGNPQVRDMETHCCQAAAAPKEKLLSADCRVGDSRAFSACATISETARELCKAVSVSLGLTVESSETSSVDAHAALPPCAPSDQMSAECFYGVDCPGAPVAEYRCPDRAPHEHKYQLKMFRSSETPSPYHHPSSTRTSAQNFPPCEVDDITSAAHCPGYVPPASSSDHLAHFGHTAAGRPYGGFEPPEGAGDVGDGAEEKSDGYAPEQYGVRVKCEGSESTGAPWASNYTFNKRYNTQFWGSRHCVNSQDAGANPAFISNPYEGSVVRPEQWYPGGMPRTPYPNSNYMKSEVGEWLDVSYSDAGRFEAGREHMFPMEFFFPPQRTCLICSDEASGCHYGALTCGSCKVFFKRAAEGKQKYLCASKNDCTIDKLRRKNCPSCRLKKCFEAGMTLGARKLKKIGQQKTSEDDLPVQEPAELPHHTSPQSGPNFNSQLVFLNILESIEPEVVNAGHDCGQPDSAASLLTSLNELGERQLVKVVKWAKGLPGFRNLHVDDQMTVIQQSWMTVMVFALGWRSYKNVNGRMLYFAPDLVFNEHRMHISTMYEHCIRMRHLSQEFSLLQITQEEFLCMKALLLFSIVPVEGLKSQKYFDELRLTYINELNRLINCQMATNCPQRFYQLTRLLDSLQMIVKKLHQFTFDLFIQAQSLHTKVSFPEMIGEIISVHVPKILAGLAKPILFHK

medaka Esr1 (mEsr1) [3] = biological target: T1, medaka Esr1 (mEsr1); test: cell-based; design: species or system Japanese medaka (Oryzias latipes)
medaka ARβ (mArβ) [4] = biological target: T2, medaka ARβ (mArβ); test: Medaka ARβ reporter gene assay, agonist assay; assay type: cell-based, Japanese medaka (Oryzias latipes)
[5] = test system: Japanese medaka (Oryzias latipes); test: Fish Short‐Term Reproduction Assay; assay type: in vivo; conditions: for LOECREPRO: LOEC on reproduction (fecundity and/or fertility); for minimal effective concentration: Oryzias latipes, 504 h, read-out: LOECmVTG; for LOECTOX: lowest observed effect concentration on mortality; for GSI Female / GSI Male / HSI Female / HSI Male / Length Female / Length Male / Weight Female / Weight Male: completion of exposure
[6] = mode of action in which IC50 or IC30 was obtained in RGA
[7] = 4.67 mg/L measured, 21 d, sig. ↑ vs control
[8] = measured concentration 0.155 mg/L
[9] = measured concentration 0.826 mg/L
[10] = measured concentration 4.67 mg/L
[11] = measured concentration 0.349 mg/L
[12] = measured concentration 1.02 mg/L

## CC(C)(c1ccc(O)cc1)c1ccc(O)cc1 [BPA, Bisphenol A]
Medaka Esr1 (mEsr1) [1]; E2 spiked at 1.0 nM (B), MAC = 1.0 × 10^−5 M
  Antagonistic activity: NE (MAC = 1.0 × 10^−5 M)^(B)
Medaka ARβ (mArβ) [2]
  pIC50: 5.15
Medaka ARβ (mArβ) [2]; [6]
  In vitro positive: aAr: aAr
Medaka ARβ (mArβ) [2]; transcriptional activity on mArβ by 11KT
  Antagonistic activity on mArβ (in words): inhibitory potency
Medaka Esr1 (mEsr1) [3]
  pEC50: 7.07
Medaka Esr1 (mEsr1) [3]; mode of action in which EC50 or PC10 was obtained in RGA
  In vitro positive: Esr: Esr
Medaka ARβ (mArβ) [4]; MAC = 1.0 × 10^−5 M
  Agonistic activity: NE (MAC = 1.0 × 10^−5 M)
[5]; 0.155 mg/L measured, 21 d
  Fertility rate: 96 ± 2.1%
  Hepatic VTG, female: 435 ± 65 ng/mg‐liver
  Hepatic VTG, male: 0.5 ± 0.0 ng/mg‐liver
  Mortality: 17%
  Mortality, number of dead fish: 4
  Number of total eggs (per female per day): 14 ± 1.8
  SSC female (joint plates with papillary processes): 0 ± 0
  SSC male (joint plates with papillary processes): 74 ± 3.6
[5]; 0.826 mg/L measured, 21 d
  Fertility rate: 94 ± 1.9%
  Hepatic VTG, female: 768 ± 297 ng/mg‐liver
  Hepatic VTG, male: 0.5 ± 0.0 ng/mg‐liver
  Mortality: 8.3%
  Mortality, number of dead fish: 2
  Number of total eggs (per female per day): 14 ± 1.6
  SSC female (joint plates with papillary processes): 0 ± 0
  SSC male (joint plates with papillary processes): 71 ± 4.2
[5]; 4.67 mg/L measured, 21 d
  Hepatic VTG, female: 3,456 ng/mg‐liver
  SSC female (joint plates with papillary processes): 0 ± 0
  SSC male (joint plates with papillary processes): 76 ± 5.7
[5]; [7]
  Hepatic VTG, male: 2,804 ± 811 ng/mg‐liver
  Mortality: 71%
  Mortality, number of dead fish: 17
[5]; 4.67 mg/L measured, 21 d, sig. ↓ vs control
  Fertility rate: 59 ± 25%
[5]; 21 d
  Fecundity, number of total eggs (in words): statistically significant decrease
  LOEC, elevated hepatic VTG in males: 4.67 mg/L
[5]
  LOECREPRO: 4,670 μg/L
  minimal effective concentration: 4.67 µg/mL
  LOECTOX: 4,670 μg/L
[5]; at concentrations that did not affect number of total eggs
  Fertility rate (in words): significant decrease
[5]; [8]
  GSI Female: 6.8 ± 0.5%
  GSI Male: 0.91 ± 0.13%
  HSI Female: 3.4 ± 0.46%
  HSI Male: 2.1 ± 0.40%
  Length Female: 31.7 ± 0.9 mm
  Length Male: 33.2 ± 0.9 mm
  Weight Female: 313 ± 23 mg
  Weight Male: 290 ± 23 mg
[5]; [9]
  GSI Female: 6.0 ± 1.0%
  GSI Male: 0.80 ± 0.23%
  HSI Female: 3.3 ± 0.75%
  HSI Male: 2.3 ± 0.45%
  Length Female: 32.0 ± 0.9 mm
  Length Male: 32.5 ± 0.9 mm
  Weight Female: 342 ± 20 mg
  Weight Male: 310 ± 10 mg
[5]; [10]
  GSI Female: 2.3%
  GSI Male: 0.77 ± 0.23%
  HSI Female: 4.8%
  HSI Male: 3.4 ± 1.15%
  Length Female: 30.6 mm
  Length Male: 33.6 ± 1.9 mm
  Weight Female: 281 mg
  Weight Male: 370 ± 72 mg

## CCNc1nc(Cl)nc(NC(C)(C)C#N)n1 [CZ, Cyanazine]
Medaka Esr1 (mEsr1) [1]
  pIC50: 6.21
Medaka Esr1 (mEsr1) [1]; antagonist assays
  Antagonistic activity on mEsr1 (in words): inhibited the transcriptional activity on mEsr1 by E2
Medaka Esr1 (mEsr1) [1]; [6]
  In vitro positive: aEsr: aEsr
Medaka ARβ (mArβ) [2]; 11‐KT spiked at 50 nM (D), MAC = 1.0 × 10^−4 M
  Antagonistic activity: NE (MAC = 1.0 × 10^−4 M)^(D)
Medaka Esr1 (mEsr1) [3]; MAC = 1.0 × 10^−4 M
  Agonistic activity: NE (MAC = 1.0 × 10^−4 M)
Medaka ARβ (mArβ) [4]; MAC = 1.0 × 10^−4 M
  Agonistic activity: NE (MAC = 1.0 × 10^−4 M)
[5]; 0.349 mg/L measured, 21 d
  Fertility rate: 80 ± 19%
  Hepatic VTG, female: 2,550 ± 896 ng/mg‐liver
  Hepatic VTG, male: 0.5 ± 0.0 ng/mg‐liver
  Mortality: 4.2%
  Mortality, number of dead fish: 1
  Number of fertilized eggs (per female per day): 12 ± 5.8
  Number of total eggs (per female per day): 14 ± 5.1
  SSC female (joint plates with papillary processes): 0 ± 0
  SSC male (joint plates with papillary processes): 96 ± 5.9
[5]; 1.02 mg/L measured, 21 d
  Fertility rate: 71 ± 20%
  Hepatic VTG, female: 2,860 ± 679 ng/mg‐liver
  Hepatic VTG, male: 0.5 ± 0.0 ng/mg‐liver
  Mortality: 8.3%
  Mortality, number of dead fish: 2
  SSC female (joint plates with papillary processes): 0 ± 0
  SSC male (joint plates with papillary processes): 94 ± 23
[5]; 21 d
  Change of hepatic VTG levels in females (in words): did not reduce
  Fecundity, number of total eggs (in words): statistically significant decrease
[5]
  LOECREPRO: 1,020 μg/L
  minimal effective concentration: > 1.02 µg/mL
  LOECTOX: ND (>1,020) μg/L
[5]; chemicals with significant decrease of number of total eggs
  Fertility rate (in words): no significant effect
[5]; concentrations without overt toxicity
  LOECREPRO (reduction in fecundity or fertility): 1,020 μg/L
[5]; [11]
  GSI Female: 8.3 ± 0.9%
  GSI Male: 0.67 ± 0.11%
  HSI Female: 3.4 ± 0.69%
  HSI Male: 1.8 ± 0.18%
  Length Female: 35.8 ± 1.0 mm
  Length Male: 35.3 ± 1.1 mm
  Weight Female: 515 ± 28 mg
  Weight Male: 483 ± 50 mg
[5]; [12]
  GSI Female: 7.6 ± 0.9%
  GSI Male: 0.55 ± 0.08%
  HSI Female: 3.5 ± 0.33%
  HSI Male: 1.7 ± 0.14%
  Length Female: 35.0 ± 1.0 mm
  Length Male: 34.4 ± 0.8 mm
  Weight Female: 470 ± 49 mg
  Weight Male: 419 ± 40 mg
